In ChEMBL document CHEMBL4619731, “Identification of a new class of non-electrophilic TRPA1 agonists by a structure-based virtual screening approach” (Bioorg Med Chem Lett, 2020) one finds Activity data, which are given here for 49 compounds.

The target of this experiment is Transient receptor potential cation channel subfamily A member 1 (Homo sapiens) (UniProt O75762). Description: Agonist activity at TRPA1 (unknown origin) at 1000 uM relative to AITC.
Chain of Transient receptor potential cation channel subfamily A member 1 (Homo sapiens) (O75762 whole entry): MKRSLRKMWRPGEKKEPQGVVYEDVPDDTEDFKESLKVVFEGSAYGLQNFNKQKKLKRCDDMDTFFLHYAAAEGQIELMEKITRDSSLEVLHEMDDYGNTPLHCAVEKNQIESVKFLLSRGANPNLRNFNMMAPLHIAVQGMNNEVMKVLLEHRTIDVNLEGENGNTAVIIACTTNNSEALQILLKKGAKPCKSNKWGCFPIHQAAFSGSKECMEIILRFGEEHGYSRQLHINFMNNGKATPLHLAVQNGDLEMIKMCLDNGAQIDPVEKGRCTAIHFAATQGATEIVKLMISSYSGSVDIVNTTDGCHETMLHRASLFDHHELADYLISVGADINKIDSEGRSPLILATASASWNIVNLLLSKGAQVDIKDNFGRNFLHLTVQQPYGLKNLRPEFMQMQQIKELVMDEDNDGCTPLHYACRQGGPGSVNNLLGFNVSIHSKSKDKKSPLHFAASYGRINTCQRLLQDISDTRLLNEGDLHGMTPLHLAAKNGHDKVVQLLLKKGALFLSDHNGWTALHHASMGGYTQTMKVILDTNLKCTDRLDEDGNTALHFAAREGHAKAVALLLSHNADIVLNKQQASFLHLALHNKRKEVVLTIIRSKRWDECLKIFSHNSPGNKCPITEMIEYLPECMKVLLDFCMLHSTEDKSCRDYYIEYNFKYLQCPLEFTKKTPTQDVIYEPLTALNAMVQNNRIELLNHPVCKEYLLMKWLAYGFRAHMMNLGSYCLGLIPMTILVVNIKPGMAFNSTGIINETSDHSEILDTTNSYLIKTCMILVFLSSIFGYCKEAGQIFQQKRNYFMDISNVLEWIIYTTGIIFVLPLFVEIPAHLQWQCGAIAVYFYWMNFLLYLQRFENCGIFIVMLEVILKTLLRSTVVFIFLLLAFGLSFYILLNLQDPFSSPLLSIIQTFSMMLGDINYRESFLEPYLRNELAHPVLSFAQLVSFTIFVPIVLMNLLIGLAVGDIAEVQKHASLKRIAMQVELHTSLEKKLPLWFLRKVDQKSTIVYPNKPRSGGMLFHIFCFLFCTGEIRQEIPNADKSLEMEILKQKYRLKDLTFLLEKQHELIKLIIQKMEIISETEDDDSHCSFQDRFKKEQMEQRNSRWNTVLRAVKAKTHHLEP
On to `CCCCCCCCCC(C)O` (centres undefined), for which the Activity was 16%.
In turn, `CCCCCCCCCC(C)=O` came in with an Activity of 15%.
The value for `CCCCCC(=O)OCCC(C)C` was 16%; that for `CCCCCCCC1CCCC(=O)O1` (centres undefined) was 20%.
The value for `CCCCCCCCC(=O)OCC` was 12%.
In turn, `CCCCCCCCCCCO` showed an Activity of 20%.
With `OC[C@H]1O[C@H](O[C@H]2[C@H](O)[C@@H](O)[C@@H](O[C@H]3[C@H](O)[C@@H](O)C(O)O[C@@H]3CO)O[C@@H]2CO)[C@H](O)[C@@H](O)[C@@H]1O` (some centres undefined) the figure was 14%.
With `CCCCCCCC(=O)OC`, the Activity came to 33%.
On to `CCCCCCCCCCCCCC(=O)O`, for which the Activity was determined as 23%.
Take `CCCCCCCCCCO`: the Activity turned out to be 71%.
`CCCCCCCCCC(=O)OC`: the Activity amounted to 14%.
As for `CCCCCCCCC(C)=O`, the Activity was determined as 11%.
The value for `CCCCCCCCCCCC(C)=O` was 13%; that for `CCCCCCCCCC(=O)OCC` was 16%; that for `CCCCCCCC(=O)CC` was 15%.
The value for `CCCC(=O)OCCc1ccccc1` was 62%; that for `CCOC(=O)CC(O)(CC(=O)OCC)C(=O)OCC` was 18%.
Consider `CC(C)C(=O)OCCc1ccccc1`, for which the Activity is 37%.
Compound `O=c1cc(-c2ccc(O)cc2)oc2cc(O[C@@H]3O[C@H](CO)[C@@H](O)[C@H](O)[C@H]3O)c([C@@H]3O[C@H](CO)[C@@H](O)[C@H](O)[C@H]3O)c(O)c12` displayed an Activity of 20%.
The value for `CCCCCCCC1CCC(=O)O1` (centres undefined) was 27%; that for `CCCCCCCCOC(=O)CCC` was 13%.
For `O=c1c(O[C@@H]2O[C@@H](CO)[C@H](O)[C@H]2O)c(-c2ccc(O)c(O)c2)oc2cc(O)cc(O)c12`, the Activity was 41%.
`CC(=O)OC(C)C`: the Activity worked out at 10%.
`CCCCCCCCCC(=O)OCCC(C)C` returned an Activity of 13%.
`C/C=C/C(=O)C1=C(C)C=CCC1(C)C`: the Activity worked out at 13%.
With `C[C@@H]1O[C@@H](O[C@H]2[C@H](Oc3cc(O)c4c(c3)O[C@H](c3ccc(O)cc3)CC4=O)O[C@H](CO)[C@@H](O)[C@@H]2O)[C@H](O)[C@H](O)[C@H]1O` the figure was 20%; with `CCCCCCCCOC(C)=O`, 8%.
The compound `CCCCCCCOC(C)=O` showed an Activity of 8%.
The value for `CCCCCCCC(=O)OCC` was 9%; that for `CCCC(=O)OCC(C)C` was 19%.
With `CCCCCCCCCCC(C)=O` the figure was 13%; with `Oc1cc(O)c2c(c1)O[C@H](c1ccc(O)c(O)c1)[C@H](O)[C@H]2c1c(O)cc(O)c2c1O[C@H](c1ccc(O)c(O)c1)[C@H](O)C2`, 22%; with `CCOC(=O)c1ccco1`, 12%.
With `O=c1ccn([C@@H]2O[C@H](CO)[C@@H](O)[C@H]2O)c(=O)[nH]1` the figure was 11%.
In turn, `O=c1cc(-c2ccc(O)cc2)oc2c([C@@H]3O[C@H](CO)[C@@H](O)[C@H](O)[C@H]3O)c(O)cc(O)c12` registered an Activity of 15%.
With `CC(=O)OCC(COC(C)=O)OC(C)=O` the figure was 17%; with `CCCCCCCC(=O)OCCC(C)C`, 12%; with `CC(O)CO` (centres undefined), 12%.
The compound `CCCCCCCCCCCCCC(=O)OCC` had an Activity of 17%.
Consider `O=C(O[C@H]1Cc2c(O)cc(O)cc2O[C@@H]1c1ccc(O)c(O)c1)c1cc(O)c(O)c(O)c1`, for which the Activity worked out at 15%.
With `CCCCCCCCCCCCCC(C)=O` the figure was 10%; with `CCCCCCCCCCCCO`, 12%.
The value for `CCCCC(CC)CO` (centres undefined) was 60%.
As for `COc1cc(C2OCC3C(c4cc(OC)c(O)c(OC)c4)OCC23)cc(OC)c1O` (centres undefined), the Activity worked out at 26%.
With `CCCCC(CC)COC(=O)c1ccccc1O` (centres undefined) the figure was 14%.
`CCCCCCCCC(=O)OC` gave an Activity of 39%.
The compound `CCCCCC(=O)OCC(C)C` showed an Activity of 23%.
Compound `CCCCCCCCCCCCCCCC(=O)OC` had an Activity of 17%.
The compound `CCCCCCCCCCCC(=O)OCC` gave an Activity of 15%.
